From patent publication US20140023611A1 (priority 2010, published 2014) come the findings set out here.

The target of the assay is T1, rat NaP2b (SLC34A2) (Rattus norvegicus, UniProt Q9JJ09).
T1 construct: host or cells: HEK293
T1 sequence (Q9JJ09 1-695): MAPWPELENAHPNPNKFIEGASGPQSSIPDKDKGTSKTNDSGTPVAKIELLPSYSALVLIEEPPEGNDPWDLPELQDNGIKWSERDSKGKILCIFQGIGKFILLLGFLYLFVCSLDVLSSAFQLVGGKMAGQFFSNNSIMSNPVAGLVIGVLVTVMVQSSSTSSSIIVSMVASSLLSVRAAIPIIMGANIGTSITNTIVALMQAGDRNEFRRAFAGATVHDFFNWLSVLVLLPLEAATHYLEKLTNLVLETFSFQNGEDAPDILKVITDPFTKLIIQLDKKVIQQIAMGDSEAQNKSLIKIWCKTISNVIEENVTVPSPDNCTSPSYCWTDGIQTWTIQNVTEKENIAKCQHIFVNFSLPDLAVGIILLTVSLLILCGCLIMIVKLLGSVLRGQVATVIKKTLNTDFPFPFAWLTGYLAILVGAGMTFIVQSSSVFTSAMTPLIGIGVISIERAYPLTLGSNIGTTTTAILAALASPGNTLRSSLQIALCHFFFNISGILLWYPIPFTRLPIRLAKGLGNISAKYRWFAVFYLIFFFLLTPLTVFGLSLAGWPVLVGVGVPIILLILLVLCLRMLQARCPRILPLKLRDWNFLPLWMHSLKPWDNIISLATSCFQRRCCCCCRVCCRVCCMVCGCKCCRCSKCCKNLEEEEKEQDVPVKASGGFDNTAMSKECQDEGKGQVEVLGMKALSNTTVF
The assay is described as follows: Inhibition of NaP2b-mediated Pi (33P) uptake in transfected HEK293 cells, rat NaP2b. In kind it is cell-based. The settings on record: 33P Pi uptake, 0.1 mM phosphate, value given as pIC50 range. The method in brief: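 The cells transiently expressed NaP2b after Lipofectamine transfection. Each compound was run in duplicate over twelve concentrations, 0.1 nM–30 uM.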
With `CC(=O)N1CCCN(C(=O)CCOCCOCCOCCOCCSCc2cccc(C(=O)Nc3ccc(N4CCCCC4)cc3-c3cc(C(=O)NCc4cccc(C(F)(F)F)c4)ccn3)c2)CC1` [Example 153, 2-(2-(3-(17-(4-acetyl-1,4-diazepan-1-yl)-17-oxo-5,8,11,14-tetraoxa-2-thiaheptadecyl)benzamido)-5-(piperidin-1-yl)phenyl)-N-(3-(trifluoromethyl)benzyl)isonicotinamide], the IC50 (in general, the concentration at which inhibition is half-maximal) was 10 to 31.6 µM.
As for `O=C(NCc1cccc(C(F)(F)F)c1)c1ccnc(-c2cc(N3CCCCC3)ccc2NC(=O)c2cccc(CSCCOCCOCCOCCOCCC(=O)N3CCC(N4CCOCC4)CC3)c2)c1` [Example 154, 2-(2-(3-(17-(4-morpholinopiperidin-1-yl)-17-oxo-5,8,11,14-tetraoxa-2-thiaheptadecyl)benzamido)-5-(piperidin-1-yl)phenyl)-N-(3-(trifluoromethyl)benzyl)isonicotinamide], the IC50 is 10 to 31.6 µM.
The result for `O=C(O)CCOCCOCCOCCNC(=O)CCOCCOCCOCCOCCSCc1cccc(C(=O)Nc2ccc(N3CCCCC3)cc2-c2cc(C(=O)NCc3cccc(C(F)(F)F)c3)ccn2)c1` [Example 155, 17-oxo-1-(3-(4-(piperidin-1-yl)-2-(4-(3-(trifluoromethyl)benzylcarbamoyl)pyridin-2-yl)phenylcarbamoyl)phenyl)-5,8,11,14,21,24,27-heptaoxa-2-thia-18-azatriacontan-30-oic acid] reads 10 to 31.6 µM.
The result for `O=C(NCc1cccc(C(F)(F)F)c1)c1ccnc(-c2cc(N3CCCCC3)ccc2NC(=O)c2cccc(Cn3ccc4c(C(=O)NCCOCCOCCO)cccc43)c2)c1` [Example 180, N-(2-(2-(2-hydroxyethoxy)ethoxy)ethyl)-1-(3-(4-(piperidin-1-yl)-2-(4-(3-(trifluoromethyl)benzylcarbamoyl)pyridin-2-yl)phenylcarbamoyl)benzyl)-1H-indole-4-carboxamide] reads 1 to 7.94 µM; that for `O=C(O)c1cccc(Cn2ccnc2-c2cccc(C(=O)Nc3ccc(N4CCCCC4)cc3-c3cc(C(=O)NCc4cccc(C(F)(F)F)c4)ccn3)c2)c1` [Example 184, 3-((2-(3-(4-(piperidin-1-yl)-2-(4-(3-(trifluoromethyl)benzylcarbamoyl)pyridin-2-yl)phenylcarbamoyl)phenyl)-1H-imidazol-1-yl)methyl)benzoic acid], 1 to 7.94 µM; that for `O=C(O)c1cccc(CSc2cccc(C(=O)Nc3ccc(N4CCCCC4)cc3-c3cc(C(=O)NCc4cccc(C(F)(F)F)c4)ccn3)c2)c1` [Example 186, 3-((3-(4-(piperidin-1-yl)-2-(4-(3-(trifluoromethyl)benzylcarbamoyl)pyridin-2-yl)phenylcarbamoyl)phenylthio)methyl)benzoic acid], 1 to 7.94 µM.
Then `CCN(CC)c1ccc(NC(=O)c2cccc(C(=O)N3CCC[C@H](C(=O)NCCOC)C3)c2)c(-c2cc(C(=O)NCc3cccc(C(F)(F)F)c3)ccn2)c1` [Example 189, (S)-2-(5-(diethylamino)-2-(3-(3-((2-methoxyethyl)carbamoyl)piperidine-1-carbonyl)benzamido)phenyl)-N-(3-(trifluoromethyl)benzyl)isonicotinamide], with 1 to 7.94 µM; and `CN(CCN1CCC[C@H]1C(=O)N(C)CCOCCOCCOCCC(=O)OC(C)(C)C)C(=O)c1cccc(C(=O)Nc2ccc(N3CCCCC3)cc2-c2cc(C(=O)N[C@H]3CCCc4ccccc43)ccn2)c1` [Example 190, tert-Butyl 2-methyl-1-((S)-1-(2-(N-methyl-3-((4-(piperidin-1-yl)-2-(4-(((S)-1,2,3,4-tetrahydronaphthalen-1-yl)carbamoyl)pyridin-2-yl)phenyl)carbamoyl)benzamido)ethyl)pyrrolidin-2-yl)-1-oxo-5,8,11-trioxa-2-azatetradecan-14-oate], with 1 to 7.94 µM.
Molecule `CCN(CC)c1ccc(NC(=O)c2cccc(C(=O)N(C)CCO)c2)c(-c2cc(C(=O)N[C@H]3CCCc4ccccc43)ccn2)c1` [Example 194, (S)—N^1-(4-(diethylamino)-2-(4-((1,2,3,4-tetrahydronaphthalen-1-yl)carbamoyl)pyridin-2-yl)phenyl)-N^3-(2-hydroxyethyl)-N^3-methylisophthalamide] gave an IC50 of less than 1 µM.
The result for `CCN(CC)c1ccc(NC(=O)c2cccc(C(=O)N(C)CCN3CCCN(C(=O)CCOCCOCCOCCOCCOCCOCCOCCOC)CC3)c2)c(-c2cc(C(=O)N[C@H]3CCCc4ccccc43)ccn2)c1` [Example 197, (S)—N^1-(2-(4-(2,5,8,11,14,17,20,23-octaoxahexacosan-26-oyl)-1,4-diazepan-1-yl)ethyl)-N^3-(4-(diethylamino)-2-(4-((1,2,3,4-tetrahydronaphthalen-1-yl)carbamoyl)pyridin-2-yl)phenyl)-N^1-methylisophthalamide] reads 1 to 7.94 µM; that for `COCCOCCOCCOCCOCCOCCOCCN(C)C(=O)[C@@H]1CCCN1CCN(C)C(=O)c1cccc(C(=O)Nc2ccc(N3CCCCC3)cc2-c2cc(C(=O)N[C@H]3CCCc4ccccc43)ccn2)c1` [Example 198, N^1-(2-((S)-2-(2,5,8,11,14,17,20-heptaoxadocosan-22-yl(methyl)carbamoyl)pyrrolidin-1-yl)ethyl)-N^1-methyl-N^3-(4-(piperidin-1-yl)-2-(4-(((S)-1,2,3,4-tetrahydronaphthalen-1-yl)carbamoyl)pyridin-2-yl)phenyl)isophthalamide], 10 to 31.6 µM; that for `COCCNC(=O)N1CCN(CCN(C)C(=O)c2cccc(C(=O)Nc3ccc(N4CCCCC4)cc3-c3cc(C(=O)NCc4cccc(C(F)(F)F)c4)ccn3)c2)CC1` [Example 207, N1-(2-(4-((2-methoxyethyl)carbamoyl)piperazin-1-yl)ethyl)-N3-(2-(4-((3-(trifluoromethyl)benzyl)carbamoyl)pyridin-2-yl)-4-(piperidin-1-yl)phenyl)-N1-methylisophthalamide], 10 to 31.6 µM.
Then `COCCNC(=O)N1CCN(CCN(C)Cc2cccc(C(=O)Nc3ccc(N4CCCCC4)cc3-c3cc(C(=O)NCc4cccc(C(F)(F)F)c4)ccn3)c2)CC1` [Example 208, N-(2-methoxyethyl)-4-(2-(methyl(3-(4-(piperidin-1-yl)-2-(4-(3-(trifluoromethyl)benzylcarbamoyl)pyridin-2-yl)phenylcarbamoyl)benzyl)amino)ethyl)piperazine-1-carboxamide], with 10 to 31.6 µM; and `COCCN(CCOC)CCN(C)C(=O)c1cccc(C(=O)Nc2ccc(N3CCCCC3)cc2-c2cc(C(=O)N[C@H]3CCCc4ccccc43)ccn2)c1` [Example 217, (S)—N1-(2-(bis(2-methoxyethyl)amino)ethyl)-N1-methyl-N3-(4-(piperidin-1-yl)-2-(4-(1,2,3,4-tetrahydronaphthalen-1-ylcarbamoyl)pyridin-2-yl)phenyl)isophthalamide], with less than 1 µM.
Then `COCCN(CCOCCOCCOCCC(=O)O)CCN(C)C(=O)c1cccc(C(=O)Nc2ccc(N3CCCCC3)cc2-c2cc(C(=O)N[C@H]3CCCc4ccccc43)ccn2)c1` [Example 221, 5-{2-[N-methyl-1-(3-{[4-(piperidin-1-yl)-2-(4-{[(1S)-1,2,3,4-tetrahydronaphthalen-1-yl]carbamoyl}pyridin-2-yl)phenyl]carbamoyl}phenyl)formamido]ethyl}-2,8,11,14-tetraoxa-5-azaheptadecan-17-oic acid], with 10 to 31.6 µM; and `CCN(CC)c1ccc(NC(=O)c2cccc(C(=O)N(C)CCN(C)CCOCCOCCOCCNC(N)=O)c2)c(-c2cc(C(=O)N[C@H]3CCCc4ccccc43)ccn2)c1` [Example 224, (S)—N1-(1-amino-14-methyl-1-oxo-5,8,11-trioxa-2,14-diazahexadecan-16-yl)-N3-(4-(diethylamino)-2-(4-(1,2,3,4-tetrahydronaphthalen-1-ylcarbamoyl)pyridin-2-yl)phenyl)-N1-methylisophthalamide], with 1 to 7.94 µM.
The molecule `CCN(CC)c1ccc(NC(=O)c2cccc(C(=O)N(C)CCN(C)CCOCCOCCOCCNC(=O)N(CCO)CCO)c2)c(-c2cc(C(=O)N[C@H]3CCCc4ccccc43)ccn2)c1` [Example 225, (S)—N1-(4-(diethylamino)-2-(4-(1,2,3,4-tetrahydronaphthalen-1-ylcarbamoyl)pyridin-2-yl)phenyl)-N3-(1-hydroxy-3-(2-hydroxyethyl)-17-methyl-4-oxo-8,11,14-trioxa-3,5,17-triazanonadecan-19-yl)-N3-methylisophthalamide] showed an IC50 of 10 to 31.6 µM.
Then `COCCOCCOCCOCCOCCOCCOCCOCC(=O)N1CCN(CCN(C)C(=O)c2cccc(C(=O)Nc3ccc(N4CCCCC4)cc3-c3cc(C(=O)N[C@H]4CCCc5ccccc54)ccn3)c2)CC1` [Example 228, (S)—N1-(2-(4-2,5,8,11,14,17,20,23-octaoxapentacosanepiperazin-1-yl)ethyl)-N1-methyl-N3-(4-(piperidin-1-yl)-2-(4-(1,2,3,4-tetrahydronaphthalen-1-ylcarbamoyl)pyridin-2-yl)phenyl)isophthalamide], with 1 to 7.94 µM; and `CN(CCN1C[C@H](O)C[C@H]1C(=O)N(C)CCOCCOCCOCCC(=O)OC(C)(C)C)C(=O)c1cccc(C(=O)Nc2ccc(N3CCCCC3)cc2-c2cc(C(=O)N[C@H]3CCCc4ccccc43)ccn2)c1` [Example 241], with 1 to 7.94 µM.
